This data set is described as follows: Measurement of log P values by HPLC on reversed phase columns (methods [a] pH 2.3, [b] pH 2.7, [c] pH 7.8). Format: physicochemical. A digest of the protocol:
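Determined per EEC Directive 79/831 Annex V.A8 by reversed-phase HPLC, 10-95% acetonitrile gradient: [a] pH 2.3, 0.1% phosphoric acid; [b] LC-MS, pH 2.7, 0.1% formic acid; [c] LC-MS, pH 7.8, 0.001 molar ammonium hydrogen carbonate. Calibrated with C3-C16 alkan-2-ones by retention-time interpolation.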

The mark [1] stands for this setting: HPLC reversed phase, method [b] (pH 2.7).
[2] abbreviates: HPLC reversed phase, method [c] pH 7.8.
[3] abbreviates: HPLC on reversed phase column, method [b], pH 2.7.
[4] abbreviates: HPLC on reversed phase column, method [c], pH 7.8.

On to `Cc1nc(C(F)(F)F)c(C(=O)N[C@@H]2CCC[C@@H]2c2ccc(OC(C)C)cc2)s1` (relative stereo) [Example 342], for which the logP runs as follows: under setting [1], 3.80^[b]; under setting [2], 3.71^[c];. On the same counts, the results for `Cc1nc(C(F)(F)F)c(C(=O)N[C@@H]2CCC[C@@H]2c2ccccc2F)s1` (relative stereo) [Example 343] are 3.18^[b] and 3.07^[c];. On the same counts, the results for `O=C(N[C@@H]1CCC[C@@H]1c1ccc(C(F)(F)F)cc1)c1sccc1I` (relative stereo) [Example 360] are 4.21^[b] and 4.16^[c];. On to `O=C(N[C@@H]1CC[C@H]1c1ccc(F)cc1C(F)(F)F)c1c(F)cccc1F` (relative stereo) [Example 492], for which, under setting [1], the logP was 3.38^[b]. On the same count and under the same terms, next, `O=C(N[C@@H]1CC[C@H]1c1ccc(F)cc1C(F)(F)F)c1ccccc1` (relative stereo) [Example 504]: 3.42^[b].

As to `O=C(N[C@@H]1CC[C@@H]1c1ccc(F)cc1C(F)(F)F)c1ccc(Cl)cc1Cl` (relative stereo) [Example 506], the logP under setting [1] is 3.85^[b]. The same measure, in the same setting: next, `O=C(N[C@@H]1CC[C@H]1c1ccc(F)cc1C(F)(F)F)c1ccc(Cl)cc1` (relative stereo) [Example 507]: 3.94^[b]; `O=C(N[C@@H]1CC[C@@H]1c1ccc(F)cc1C(F)(F)F)c1ccc(Cl)cc1` (relative stereo) [Example 508]: 3.62^[b]. As for `O=C(N[C@@H]1CC[C@H]1c1ccc(F)cc1C(F)(F)F)c1ccc(Cl)cc1Cl` (relative stereo) [Example 510], the logP under setting [1] is 4.08^[b]. On the same count and under the same terms, the result for `O=C(N[C@@H]1CC[C@@H]1c1ccc(F)cc1C(F)(F)F)c1cccc(Cl)c1` (relative stereo) [Example 511] reads 3.65^[b]. Still for that read-out and setting: next, `O=C(N[C@@H]1CC[C@H]1c1ccc(F)cc1C(F)(F)F)c1ccccc1Cl` (relative stereo) [Example 512]: 3.56^[b]. Same read-out and setting: the result for `O=C(N[C@@H]1CC[C@H]1c1ccc(F)cc1C(F)(F)F)c1ccccc1[N+](=O)[O-]` (relative stereo) [Example 521] reads 3.10^[b]; that for `O=C(N[C@@H]1CC[C@H]1c1ccc(F)cc1C(F)(F)F)c1cccnc1Cl` (relative stereo) [Example 524], 2.93^[b]; that for `O=C(N[C@@H]1CC[C@H]1c1ccc(F)cc1C(F)(F)F)c1nccnc1Cl` (relative stereo) [Example 525], 3.16^[b]. Consider `O=C(N[C@@H]1CC[C@H]1c1ccc(F)cc1C(F)(F)F)c1cccnc1` (relative stereo) [Example 526], for which the logP under setting [1] was 2.41^[b]. Same read-out and setting: the result for `O=C(N[C@@H]1CC[C@@H]1c1cc(F)ccc1C(F)(F)F)c1ccc(Cl)cc1` (relative stereo) [Example 527] reads 3.63^[b]; that for `O=C(N[C@@H]1CC[C@@H]1c1cc(F)ccc1C(F)(F)F)c1ncc(C(F)(F)F)cc1Cl` (relative stereo) [Example 529], 3.91^[b]; that for `Cc1nc(C(F)(F)F)c(C(=O)N[C@@H]2CC[C@H]2c2ccc(F)cc2C(F)(F)F)s1` (relative stereo) [Example 530], 3.60^[b]. Still for that read-out and setting: next, `Cc1nc(C(F)(F)F)c(C(=O)N[C@@H]2CC[C@@H]2c2ccc(F)cc2C(F)(F)F)s1` (relative stereo) [Example 531]: 3.35^[b]; `O=C(N[C@@H]1CC[C@H]1c1ccccc1Cl)c1cccnc1Cl` (relative stereo) [Example 533]: 3.65^[b]. Consider `O=C(N[C@@H]1CC[C@@H]1c1ccccc1Cl)c1cccnc1Cl` (relative stereo) [Example 534], for which, under setting [1], the logP was 2.40^[b].

In the case of `O=C(N[C@@H]1CC[C@@H]1c1c(F)cccc1C(F)(F)F)c1ccc(Cl)cc1Cl` (relative stereo) [Example 535], the logP under setting [1] is 3.93^[b]. Same read-out and setting: next, `O=C(N[C@@H]1CC[C@@H]1c1c(F)cccc1C(F)(F)F)c1ccc(Cl)cc1` (relative stereo) [Example 536]: 3.72^[b]; `O=C(N[C@@H]1CC[C@H]1c1ccccc1Cl)c1cccnc1` (relative stereo) [Example 539]: 2.06^[b]; `O=C(N[C@@H]1CC[C@H]1c1ccccc1Cl)c1ccccc1[N+](=O)[O-]` (relative stereo) [Example 547]: 2.92^[b]. Same read-out and setting: the result for `O=C(N[C@@H]1CC[C@@H]1c1c(F)cccc1C(F)(F)F)c1cccc(Cl)c1` (relative stereo) [Example 552] reads 4.26^[b]; that for `Cc1nc(C(F)(F)F)c(C(=O)N[C@@H]2CC[C@H]2c2ccccc2Cl)s1` (relative stereo) [Example 554], 3.34^[b]; that for `O=C(N[C@@H]1CC[C@@H]1c1cc(F)ccc1C(F)(F)F)c1ccc(Cl)cc1Cl` (relative stereo) [Example 557], 3.85^[b]. On the same count and under the same terms, next, `O=C(N[C@@H]1CC[C@@H]1c1c(F)cccc1C(F)(F)F)c1cccnc1` (relative stereo) [Example 562]: 2.16^[b]; `O=C(N[C@@H]1C[C@@H]1c1ccc(Cl)cc1Cl)c1cccnc1C(F)(F)F` (relative stereo) [Example 565]: 2.85^[b].

As for `Cc1nc(C(F)(F)F)c(C(=O)N[C@@H]2C[C@@H]2c2ccc(Cl)cc2Cl)s1` (relative stereo) [Example 568], the logP under setting [1] is 3.29^[b].

`Cc1nc(C(F)(F)F)c(C(=O)N[C@@H]2CC[C@@H]2c2cc(F)ccc2C(F)(F)F)s1` (relative stereo) [Example 569]: the logP under setting [1] was 3.40^[b]. The same measure, in the same setting: next, `Cc1nc(C(F)(F)F)c(C(=O)N[C@@H]2CC[C@@H]2c2c(F)cccc2C(F)(F)F)s1` (relative stereo) [Example 573]: 3.47^[b]; `O=C(N[C@@H]1C[C@@H]1c1ccc(Cl)cc1Cl)c1cccnc1` (relative stereo) [Example 583]: 2.06^[b]; `O=C(N[C@@H]1CC[C@H]1c1cccc(F)c1C(F)(F)F)c1ccccc1C(F)(F)F` (relative stereo) [Example 588]: 3.63^[b]. The same measure, in the same setting: next, `O=C(N[C@@H]1CC[C@H]1c1cccc(F)c1C(F)(F)F)c1ccccc1I` (relative stereo) [Example 590]: 3.68^[b]; `O=C(N[C@@H]1CC[C@H]1c1cccc(F)c1C(F)(F)F)c1ccccc1` (relative stereo) [Example 591]: 3.35^[b]. In the case of `O=C(N[C@@H]1CC[C@H]1c1cccc(F)c1C(F)(F)F)c1ccc(Cl)cc1Cl` (relative stereo) [Example 593], the logP under setting [3] is 3.50^[b]. On the same count and under the same terms, the result for `O=C(N[C@@H]1CC[C@H]1c1cccc(F)c1C(F)(F)F)c1cccc(Cl)c1` (relative stereo) [Example 596] reads 3.92^[b]. Regarding `O=C(N[C@@H]1CC[C@@H]1c1cccc(F)c1C(F)(F)F)c1cccc(Cl)c1` (relative stereo) [Example 597], the logP under setting [3] was 3.50^[b]. Turning to `O=C(N[C@@H]1CC[C@H]1c1cccc(F)c1C(F)(F)F)c1ccc(Cl)cc1` (relative stereo) [Example 600], the logP under setting [3] was 3.88^[b]. As to `O=C(N[C@@H]1CC[C@H]1c1cccc(F)c1C(F)(F)F)c1ncc(C(F)(F)F)cc1Cl` (relative stereo) [Example 602], the logP under setting [3] was 4.10^[b]. The same measure, in the same setting: the result for `O=C(N[C@@H]1CC[C@@H]1c1cccc(F)c1C(F)(F)F)c1ncc(C(F)(F)F)cc1Cl` (relative stereo) [Example 603] reads 3.81^[b]. Consider `O=C(N[C@@H]1C[C@@H]1c1ccc(Cl)cc1Cl)c1cncnc1C(F)(F)F` (relative stereo) [Example 610], for which the logP is 2.89^[b] under setting [3] and 2.87^[c]; under setting [4].

Turning to `Cn1ncc(C(=O)N[C@@H]2C[C@@H]2c2ccc(Cl)cc2Cl)c1C(F)F` (relative stereo) [Example 612], the logP under setting [3] is 2.99^[b] and the logP under setting [4] is 2.94^[c];.

For the compound `O=C(N[C@@H]1C[C@@H]1c1ccc(Cl)cc1Cl)c1ccc(Cl)cc1Cl` (relative stereo) [Example 613], the logP is 3.82^[b] under setting [3] and 3.76^[c]; under setting [4]. On the same counts, the results for `CC1=C(C(=O)N[C@@H]2C[C@@H]2c2ccc(Cl)cc2Cl)S(=O)(=O)CCO1` (relative stereo) [Example 614] are 2.40^[b] and 2.33^[c];. On the same counts, the results for `CC1=C(C(=O)N[C@@H]2C[C@@H]2c2ccc(Cl)cc2Cl)SCCO1` (relative stereo) [Example 615] are 3.06^[b] and 3.01^[c];. On to `O=C(N[C@@H]1CC[C@H]1c1cccc(F)c1C(F)(F)F)c1ncccc1Cl` (relative stereo) [Example 616], for which, under setting [3], the logP is 3.30^[b]. On the same count and under the same terms, next, `O=C(N[C@@H]1CC[C@H]1c1ccccc1C(F)(F)F)c1cccnc1` (relative stereo) [Example 618]: 2.26^[b]. On the same count and under the same terms, the result for `O=C(N[C@@H]1CC[C@H]1c1ccccc1C(F)(F)F)c1nccnc1Cl` (relative stereo) [Example 622] reads 2.98^[b]. Take `O=C(N[C@@H]1CC[C@H]1c1ccccc1C(F)(F)F)c1ncccc1Br` (relative stereo) [Example 624]: the logP is 3.34^[b] under setting [3] and 3.27^[c]; under setting [4]. Consider `Cc1nc(C(F)(F)F)c(C(=O)N[C@@H]2CC[C@H]2c2cccc(F)c2C(F)(F)F)s1` (relative stereo) [Example 625], for which the logP under setting [3] was 3.56^[b]. Same read-out and setting: next, `Cc1nc(C(F)(F)F)c(C(=O)N[C@@H]2CC[C@@H]2c2cccc(F)c2C(F)(F)F)s1` (relative stereo) [Example 626]: 3.28^[b].

Turning to `O=C(N[C@@H]1CC[C@H]1c1cccc(F)c1C(F)(F)F)c1sccc1I` (relative stereo) [Example 627], the logP under setting [3] is 4.02^[b].

The values are drawn from patent publication US20160075653A1, “NEMATICIDAL N-(PHENYLCYCLOALKYL)CARBOXAMIDES AND N-(PHENYLCYCLOALKYL)THIOCARBOXAMIDES” (BAYER CROPSCIENCE AKTIENGESELLSCHAFT, priority 2013, published 2016).
